ChEMBL document CHEMBL1139641 (Bioorg Med Chem Lett, 2005)

Tests used:
[1] = molecular target: GABA B receptor (Rattus norvegicus) (UniProt Q9Z0U4+O88871); test: Percent displacement of [3H]GABA (1 mM) from Gamma-aminobutyric acid B receptor of rat cerebellum; assay type: tissue-based
[2] = molecular target: Calcium/calmodulin-dependent protein kinase type II subunit alpha (Rattus norvegicus, UniProt P11275); test: Displacement of [3H]NCS-382 (16 nM) from GHB receptor of rat cerebrocortical membranes; assay type: cell membranes, Membrane
Calcium/calmodulin-dependent protein kinase type II subunit alpha, sequence (P11275 whole entry): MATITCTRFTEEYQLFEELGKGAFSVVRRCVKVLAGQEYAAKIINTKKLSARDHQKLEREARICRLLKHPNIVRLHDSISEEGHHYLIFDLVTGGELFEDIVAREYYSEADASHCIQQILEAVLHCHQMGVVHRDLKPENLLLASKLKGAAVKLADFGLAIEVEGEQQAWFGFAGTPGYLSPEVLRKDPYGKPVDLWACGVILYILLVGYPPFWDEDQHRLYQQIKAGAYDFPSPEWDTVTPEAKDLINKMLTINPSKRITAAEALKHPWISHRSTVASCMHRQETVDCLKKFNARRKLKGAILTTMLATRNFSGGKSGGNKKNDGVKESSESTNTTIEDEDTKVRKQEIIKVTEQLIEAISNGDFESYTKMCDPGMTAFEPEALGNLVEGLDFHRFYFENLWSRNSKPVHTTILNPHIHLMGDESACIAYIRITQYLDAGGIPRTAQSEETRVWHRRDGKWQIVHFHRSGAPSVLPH

[3] = molecular target: GABA-A receptor; anion channel (Rattus norvegicus) (UniProt O09028+P15431+P18506+P18508+P19969+P20236+P23574+P23576+P28471+P28473+P30191+P62813+P63079+P63138+Q91ZM7+Q9ES14); test: Percent displacement of [3H]GABA (1 mM) from Gamma-aminobutyric acid A receptor of rat cerebral cortex; assay type: tissue-based

SMILES | inhibition [1] [%] | IC50 [2] [µM] | inhibition [3] [%]
O=C(O)CCCOc1ccccc1 | 6.5 | 210 | 6.3
O=C(O)Cc1cccc(OCCc2ccccc2)c1 | -1.2 | 8.3 | 15.1
O=C(O)Cc1cccc(Oc2ccccc2)c1 | -5.5 | 16.3 | 2.7
O=C(O)CCCO | 41.1 |  | 35.5
O=C(O)Cc1cccc(OCCCc2ccccc2)c1 | 6 | 4.5 | 17.4
O=C(O)Cc1cccc(OCc2ccccc2)c1 | -4.7 | 46 | 11
O=C(O)Cc1cccc(O)c1 [3-Hydroxyphenylacetate] | 14 | 12 | 44.2
